Laboratory results published in patent US6274715A, “Tricyclic erythromycin derivatives” (priority 1997, dated 2001).
Converted amounts (≈) assume the structure as drawn.

Columns and labels:
Assay type in all cases: cell-based
[1] = test system: KLEBSIELLA PNEUMONIAE ATCC 8045; test: In vitro antibacterial activity, MIC, BHI agar dilution; conditions: K. pneumoniae ATCC 8045, unit assumed
[2] = test system: STAPHYLOCOCCUS EPIDERMIDIS 3519; conditions: S. epidermidis 3519; BHI agar; unit assumed
ESCHERICHIA COLI JUHL = conditions: E. coli JUHL; BHI agar; unit assumed
[3] = test system: STAPHYLOCOCCUS AUREUS NCTC10649M; test: In vitro antibacterial activity, MIC, BHI agar dilution; conditions: S. aureus NCTC10649M, unit assumed
[4] = test system: STAPHYLOCOCCUS AUREUS CMX 553; test: as above; conditions: S. aureus CMX 553, unit assumed
[5] = test system: STAPHYLOCOCCUS AUREUS 1775; test: as above; conditions: S. aureus 1775, unit assumed
PSEUDOMONAS CEPACIA 296I = test: as above; conditions: P. cepacia 296I, unit assumed
ESCHERICHIA COLI KNK 437 = conditions: E. coli KNK 437; BHI agar; unit assumed
[6] = test system: STREPTOCOCCUS PYOGENES 930; test: In vitro antibacterial activity, MIC, BHI agar dilution; conditions: S. pyogenes 930, unit assumed
[7] = test system: PSEUDOMONAS AERUGINOSA 5007; test: as above; conditions: P. aeruginosa 5007, unit assumed
[8] = test system: STAPHYLOCOCCUS AUREUS ATCC 6538P; test: as above; conditions: S. aureus ATCC 6538P, 35-37° C., 20 to 24 hours, unit assumed
[9] = test system: ENTEROBACTER AEROGENES ATCC 13048; test: as above; conditions: E. aerogenes ATCC 13048, unit assumed
[10] = test system: STREPTOCOCCUS PYOGENES EES61; test: as above; conditions: S. pyogenes EES61, unit assumed
EN[…] ATCC 8043 = test: as above; conditions: E. faecium ATCC 8043, unit assumed
Procedure, shortened: (§1)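 MIC was read visually as the lowest drug level with no growth, a slight haze or sparsely isolated colonies relative to a compound-free growth control. Organisms were spotted at 1:100 dilution (1:10 for slow-growing strains) onto Brain Heart Infusion agar containing serial compound dilutions and incubated 20 to 24 hours at 35-37° C.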

M[…] ATCC 9341 = test: as above; conditions: M. luteus ATCC 9341, unit assumed
Procedure, shortened: as §1

M[…] ATCC 4698 = test: as above; conditions: M. luteus ATCC 4698, unit assumed
Procedure, shortened: as §1

STR[…] 508 = test: as above; conditions: S. agalactiae CMX 508, unit assumed
Procedure, shortened: as §1

ESCHERICHIA COLI SS = test: as above; conditions: E. coli SS, unit assumed
[11] = test system: PROVIDENCIA STUARTII CMX 640; conditions: P. stuartii CMX 640; BHI agar; unit assumed
CANDIDA ALBICANS CCH 442 = test: In vitro antibacterial activity, MIC, BHI agar dilution; conditions: C. albicans CCH 442, unit assumed
H. Influenza Dill AMP R = test: In vitro antibacterial activity against H. Influenza Dill AMP R, MIC; conditions: separate assay, unit assumed
Procedure, shortened: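 Agar dilution in Brain Heart Infusion agar, twelve successive compound dilutions, inoculated by Steers replicator with 1:100 (1:10 for slow growers) culture dilutions. Incubation 35-37° C. for 20 to 24 hours; MIC is lowest concentration giving no growth, slight haze or sparse colonies versus drug-free control.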

[12] = test system: STREPTOCOCCUS BOVIS A-5169; test: In vitro antibacterial activity, MIC, BHI agar dilution; conditions: S. bovis A-5169, unit assumed
[13] = test system: PSEUDOMONAS AERUGINOSA K799/61; test: as above; conditions: P. aeruginosa K799/61, unit assumed
[14] = test system: STAPHYLOCOCCUS AUREUS A5177; test: as above; conditions: S. aureus A5177, unit assumed
[15] = test system: ACINETOBACTER CALCOACETICUS CMX 669; test: as above; conditions: A. calcoaceticus CMX 669, unit assumed
[16] = test system: STAPHYLOCOCCUS AUREUS CMX 642A; test: as above; conditions: S. aureus CMX 642A, unit assumed
[17] = test system: STREPTOCOCCUS PYOGENES PIU 2548; test: as above; conditions: S. pyogenes PIU 2548, unit assumed
[18] = test system: PSEUDOMONAS AERUGINOSA DPHD-2862; test: as above; conditions: P. aeruginosa DPHD-2862, unit assumed
[19] = test system: PSEUDOMONAS AERUGINOSA K799/WT; test: as above; conditions: P. aeruginosa K799/WT, unit assumed
[20] = test system: PSEUDOMONAS AERUGINOSA BMH10; test: as above; conditions: P. aeruginosa BMH10, unit assumed
ESCHERICHIA COLI DC-2 = test: as above; conditions: E. coli DC-2, unit assumed
ESCHERICHIA COLI H560 = test: as above; conditions: E. coli H560, unit assumed
[21] = test system: STAPHYLOCOCCUS AUREUS A-5278; test: as above; conditions: S. aureus A-5278, unit assumed
[22] = test system: MYCOBACTERIUM SMEGMATIS ATCC 114; test: as above; conditions: M. smegmatis ATCC 114, unit assumed
[23] = test system: PSEUDOMONAS AERUGINOSA DPHD-5263; test: as above; conditions: P. aeruginosa DPHD-5263, unit assumed

Structure (SMILES)	MIC [1] [µg/mL]	MIC [2] [µg/mL]	MIC (ESCHERICHIA COLI JUHL) [µg/mL]	MIC [3] [µg/mL]	MIC [4] [µg/mL]	MIC [5] [µg/mL]	MIC (PSEUDOMONAS CEPACIA 296I) [µg/mL]	MIC (ESCHERICHIA COLI KNK 437) [µg/mL]	MIC [6] [µg/mL]	MIC [7] [µg/mL]	MIC [8] [µg/mL]	MIC [9] [µg/mL]	MIC [10] [µg/mL]	MIC (EN[…] ATCC 8043) [µg/mL]	MIC (M[…] ATCC 9341) [µg/mL]	MIC (M[…] ATCC 4698) [µg/mL]	MIC (STR[…] 508) [µg/mL]	MIC (ESCHERICHIA COLI SS) [µg/mL]	MIC [11] [µg/mL]	MIC (CANDIDA ALBICANS CCH 442) [µg/mL]	other results
CCC1OC(=O)C(C)C(=O)C(C)C(OC2OC(C)CC(N(C)C)C2O)C(C)(OC)CC(C)C2=NC(COCSC)CN3C(=O)OC1(C)C3C2C (stereo not drawn) [Example 99]	> 100	0.39 (≈ 0.536 µM)	> 100	0.39 (≈ 0.536 µM)	0.39 (≈ 0.536 µM)	> 100	> 100	> 100	> 100	> 100	0.39 (≈ 0.536 µM)	> 100	0.05 (≈ 0.0687 µM)	0.1 (≈ 0.137 µM)	0.1 (≈ 0.137 µM)	0.39 (≈ 0.536 µM)	0.05 (≈ 0.0687 µM)	0.78 (≈ 1.07 µM)	> 100	> 100	MIC (H. Influenza Dill AMP R): 32 µg/mL (≈ 44 µM); MIC [12]: 0.05 µg/mL (≈ 0.0687 µM); MIC [13]: 6.2 µg/mL (≈ 8.52 µM); MIC [14]: 0.39 µg/mL (≈ 0.536 µM); MIC [15]: 100 µg/mL (≈ 137 µM); MIC [16]: 0.39 µg/mL (≈ 0.536 µM); MIC [17]: 0.39 µg/mL (≈ 0.536 µM); MIC [18]: > 100 µg/mL; MIC [19]: > 100 µg/mL; MIC [20]: > 100 µg/mL; MIC (ESCHERICHIA COLI DC-2): > 100 µg/mL; MIC (ESCHERICHIA COLI H560): > 100 µg/mL; MIC [21]: > 100 µg/mL; MIC [22]: 3.1 µg/mL (≈ 4.26 µM); MIC [23]: > 100 µg/mL
CC[C@H]1OC(=O)[C@H](C)C(=O)[C@H](C)[C@@H](O[C@@H]2O[C@H](C)C[C@H](N(C)C)[C@H]2O)[C@](C)(OC)C[C@@H](C)C2=NC3CN(S(=O)(=O)Cc4ccccc4[N+](=O)[O-])CC3N3C(=O)O[C@@]1(C)[C@H]3[C@H]2C (stereo partly drawn) [Example 123]	> 100	3.1 (≈ 3.53 µM)	> 100	3.1 (≈ 3.53 µM)	3.1 (≈ 3.53 µM)	> 100	> 100	> 100	> 100	> 100	1.56 (≈ 1.78 µM)	> 100	0.1 (≈ 0.114 µM)	0.39 (≈ 0.444 µM)	0.39 (≈ 0.444 µM)	1.56 (≈ 1.78 µM)	0.1 (≈ 0.114 µM)	6.2 (≈ 7.06 µM)	> 100	> 100	MIC (H. Influenza Dill AMP R): 128 µg/mL (≈ 146 µM); MIC [12]: 0.1 µg/mL (≈ 0.114 µM); MIC [13]: 25 µg/mL (≈ 28.5 µM); MIC [14]: 1.56 µg/mL (≈ 1.78 µM); MIC [15]: > 100 µg/mL; MIC [16]: 3.1 µg/mL (≈ 3.53 µM); MIC [17]: 3.1 µg/mL (≈ 3.53 µM); MIC [18]: > 100 µg/mL; MIC [19]: > 100 µg/mL; MIC [20]: > 100 µg/mL; MIC (ESCHERICHIA COLI DC-2): > 100 µg/mL; MIC (ESCHERICHIA COLI H560): > 100 µg/mL; MIC [21]: > 100 µg/mL; MIC [22]: 12.5 µg/mL (≈ 14.2 µM); MIC [23]: > 100 µg/mL
CCC1OC(=O)C(C)C(=O)C(C)C(OC2OC(C)CC(N(C)C)C2O)C(C)(OC)CC(C)C2=NCC(CSc3ccccc3)(CN(C)C)N3C(=O)OC1(C)C3C2C (stereo not drawn) [Example 135]	> 100	3.1 (≈ 3.79 µM)	> 100	3.1 (≈ 3.79 µM)	3.1 (≈ 3.79 µM)	> 100	> 100	> 100	> 100	> 100	1.56 (≈ 1.91 µM)	> 100	0.2 (≈ 0.245 µM)	0.39 (≈ 0.477 µM)	0.2 (≈ 0.245 µM)	1.56 (≈ 1.91 µM)	0.2 (≈ 0.245 µM)	1.56 (≈ 1.91 µM)	> 100	> 100	MIC (H. Influenza Dill AMP R): 64 µg/mL (≈ 78.3 µM); MIC [12]: 0.1 µg/mL (≈ 0.122 µM); MIC [13]: 6.2 µg/mL (≈ 7.59 µM); MIC [14]: 1.56 µg/mL (≈ 1.91 µM); MIC [15]: > 100 µg/mL; MIC [16]: 3.1 µg/mL (≈ 3.79 µM); MIC [17]: 1.56 µg/mL (≈ 1.91 µM); MIC [18]: > 100 µg/mL; MIC [19]: > 100 µg/mL; MIC [20]: > 100 µg/mL; MIC (ESCHERICHIA COLI DC-2): > 100 µg/mL; MIC (ESCHERICHIA COLI H560): > 100 µg/mL; MIC [21]: > 100 µg/mL; MIC [22]: 1.56 µg/mL (≈ 1.91 µM); MIC [23]: > 100 µg/mL
